Reference: paper PMC11091243, “PD-L1 targeted peptide demonstrates potent antitumor and immunomodulatory activity in cancer immunotherapy” (Frontiers in Immunology, 2024)
Residues, ends and D or L forms follow the SMILES beside them. No end group written: not given here. *: point of attachment. FITC = O=C1OC2(c3ccc(O)cc3Oc3cc(O)ccc32)c2ccc(NC(=S)*)cc21

How the values were obtained:
[1] = molecular target: T1, PD-1/PD-L1 binding (Homo sapiens, UniProt Q9NZQ7); assay: ELISA competition of peptides with PD-1 for binding to PD-L1; conditions: n = 3, effect increases with peptide concentration
T1 construct: PD-1: 10377-H08H
Procedure: After seven phages were grown and purified, the solution was diluted 10 times to produce eight gradients. To ascertain the phage’s affinity for PD-L1, an ELISA test was run. Briefly, 96-well plates were filled with 150 µL of PD-L1 ([…]) in assay diluent (BioLegend, San Diego, CA), and incubated at 4°C overnight. 5% BSA in water was used to block the wells for two hours at 4°C. Following washing, 100 µL of phage diluent was added to each well, and they were shaken for two hours at room temperature. The wells were then treated with HRP-conjugated anti-M13 antibody at dose of 1:5000. With 100 µL of HRP substrate, the reaction was observed, and the OD410 was determined. By deducting the OD value of each phage binding to BSA-coated wells from the OD value of that phage binding to PD-L1, the specific binding of each phage to PD-L1 was computed. Three duplicate runs of this assay were made. GraphPad Prism 6 software was used to compute each phage binding affinity by nonlinear regression and convert it to a Scatchard plot. ELISA was used to evaluate the candidate peptides capacity to inhibit PD1/PD-L1 binding. The subsequent stages were the same as those previously outlined. Following incubation, OD410 was determined by goat anti-rabbit monoclonal antibody that had been HRP-labeled and rabbit anti-human PD-L1 protein monoclonal antibody.
To assess the effect of PPL-C peptide interference, PD-L1 binding to PD-1 was investigated using ELISA and cell-based analysis. For the ELISA, 100 μL of mouse PD-L1 in PBS was coated in each well of a 96-well plate and incubated the plate at 4°C overnight. On the second day, 1% BSA in PBST was used to block the plate. Each well was then filled with 200 nmol/L biotinylated PD-1 and FITC-labeled PPL-C peptides (at final concentrations of 40, 20, 10, 5, or 2.5 μmol/L) before 1.5 hours incubating at room temperature. After two PBST washes, the relative FITC fluorescence intensity was measured using a Cytation 3 instrument. […] After two PBST washes, the Cytation 3 device was used to detect PE fluorescence intensity. […] Samples were analyzed by flow cytometry.

[2] = test system: splenic lymphocyte subsets of CT26-bearing Balb/c mice; assay: Flow cytometry of spleen lymphocytes of CT26-bearing mice after treatment; format: in vivo; conditions: CT26-bearing Balb/c mice, 14 days after treatment; Figure 5D
Procedure: (§1) The mice’s tumor volumes were measured by calipers after they were randomly allocated to various treatment groups. Every day tumor volumes were measured along axes (a and b) that are orthogonal to one another, and they were estimated by the equation tumor volume = π/6 × a × b^2. After the tumor was established (approximately 7 days), each group was subcutaneously injected with PPL-C (6 or 11 mg/kg), control peptide (11 mg/kg), endotoxin-free PD-L1 antibody (200 μg), or control antibody, following specific treatment procedures outlined in the flow chart. The Kaplan-Meier technique was used to determine survival differences for each group, and the log-rank test using the survival R package version 2.38-3 was applied to get the overall p-value.
To differentiate lymphocytes, spleen monocytes were separated via isodensity centrifugation. For flow cytometry evaluation, cell-surface and intracellular staining was achieved through reagents from BD Biosciences or Biolegend, following previously described protocols. Re-suspending the 1× 10^6 cells in 100 μL of PBS before incubating them with the appropriate antibodies. Data were collected using a BD Biosciences FACSCalibur flow cytometer, Germany, and analyzed using FlowJo 7.6 software, USA. Based on scatter signals and 7-Amino-actinomycin D fluorescence, dead cells, and cell debris were removed from the study.

[3] = test system: CT26 tumor; format: in vivo, mouse; conditions: reduced dose, s.c. around the tumor every day or every other day, n = 6, P<0.001
Procedure: The investigators conducting the animal studies were not blinded. […] The mice were then randomized into different treatment groups.
as §1

T1 sequence (Q9NZQ7 19-239 limits assumed): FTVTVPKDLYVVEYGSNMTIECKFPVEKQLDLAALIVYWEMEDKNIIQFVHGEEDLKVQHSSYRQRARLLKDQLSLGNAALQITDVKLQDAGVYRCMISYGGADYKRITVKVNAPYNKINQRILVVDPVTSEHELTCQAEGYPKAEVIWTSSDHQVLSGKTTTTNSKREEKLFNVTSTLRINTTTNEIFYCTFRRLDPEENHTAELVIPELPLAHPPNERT

Molecule	Competition with PD-1 to bind PD-L1 (blocking of PD-L1/PD-1) [1]	Percentage of NK cells in spleen (CD49b/Nkp46, upper right quadrant) [2] [%]	Survival time of CT26 tumor-bearing mice [3] [days]
CC[C@H](C)[C@H](NC(=O)[C@H](Cc1c[nH]c2ccccc12)NC(=O)[C@H](CO)NC(=O)[C@@H](NC(=O)[C@H](Cc1c[nH]cn1)NC(=O)[C@@H](N)CO)[C@@H](C)O)C(=O)N[C@@H](CC(C)C)C(=O)N[C@@H](Cc1ccc(O)cc1)C(=O)NCC(=O)N[C@@H](CCC(=O)O)C(=O)N[C@H](C(=O)NCC(=O)N[C@@H](Cc1c[nH]c2ccccc12)C(=O)NCC(=O)NCC(=O)NCC(=O)N[C@@H](CO)C(=O)N[C@@H](CCCCNC(=S)Nc1ccc2c(c1)C(=O)OC21c2ccc(O)cc2Oc2cc(O)ccc21)C(N)=O)[C@@H](C)O [PL-8] (H-SHTSWILYGETGWGGGSK(FITC)-NH2; N-terminus assumed)	blocked moderately	–	–
SHESWLPAYVLGSGGGSK-NH2 [PL-20]	blocked moderately	–	–
SMQYADHPVNTGGGGSK-NH2 [Control peptide, scrambled control peptide, reference compound]	–	10.80	53
